Results reported in patent US5633274A, “Cancer treatments” (President and Fellows of Harvard College, priority 1993, dated 1997).
“Also recorded” adds a separate entry of the source. Like-named read-outs stand apart in the source and are kept apart here.

How the values were obtained:
nonprostate cancer cells = assay: Proliferation of nonprostate cancer cells (general statements); format: cell-based; conditions: for inhibition of (nonprostate cancer) cell proliferation: other channel and transport inhibitors
[1] = test system: human colon adenocarcinoma cells; assay: DNA synthesis ([3H]thymidine incorporation) in human colon adenocarcinoma cells; format: cell-based; conditions: FIG. 1
Method: (§1) The inhibitory effect of clotrimazol (CLT) on cell proliferation was assessed in cancerous cells. Quiescent human colon adenocarcinoma and human lung adenocarcinoma cells were stimulated with 5% fetal calf serum and synthesis of DNA was assessed by the incorporation of [3H]thymidine measures 24 hours later. […] The effect was not due to a toxic, non-specific, effect because it was reversed by removing CLT and re-stimulating the cells with 5% fetal calf serum (FIG. 1).

[2] = test system: human lung adenocarcinoma cells; assay: DNA synthesis ([3H]thymidine incorporation) in human lung adenocarcinoma cells; format: cell-based; conditions: FIG. 1
Method: as §1

[3] = test system: Primary human sarcomas rabdomyosarcoma; assay: Cell growth of primary human rabdomyosarcoma (surface covered by monolayer); format: cell-based; conditions: 10 μM CLT; 48 hours
Method: (§2) Measurement of cell density in culture plates: Cells of a specific test cell line are seeded at precisely the same low density in culture plates and incubated for approximately 12 hours in DME 10% serum, or other culture medium depending on the cell line tested. […] Alternatively, the cells can be detached from the plate by incubation with trypsin (Sigma, Co.) […] in ethylene diaminotetraacetic acid (ECTA; Sigma, Co); then the cells are counted in an hemocytometer chamber (Fisher, Pittsburgh, Pa.).
(§3) Primary human sarcomas rabdomyosarcoma and liposarcoma: Fresh human cancer specimens were obtained from human subjects undergoing a surgical procedure; the tumors were treated with colagenase to dissociate the cells which were then seeded at low density (1×10^5 in small culture chambers containing hybridomas grade culture medium supplemented with 5% fetal calf serum; after 12 hrs., when the cells were attached to the surface of the culture chambers, CLT (10 μM) or carrier (ethanol) were added *triplicate chambers). After 48 hours cell growth was assessed by optic miscroscopy calculating the surface of the culture flask covered by the cell monolayer.

[4] = test system: Primary human sarcomas liposarcoma; assay: Cell growth of primary human liposarcoma (surface covered by monolayer); format: cell-based; conditions: 10 μM CLT; 48 hours
Method: as §2, §3

[5] = test system: primary human sarcoma cells; assay: bFGF-stimulated DNA synthesis in primary human sarcoma cells; format: cell-based; conditions: for inhibition of DNA synthesis by other inhibitors of the Ca++ activated K channel: toxins, concentration not given
Method: as §3
Other antimycotics were tested for their inhibition of bFGF-stimulated DNA synthesis in the primary human sarcoma cells of Example 3.

[6] = target: T1, Ca++ activated K channel of human erythrocytes (Homo sapiens, UniProt O15554); assay: Inhibition of Ca++ activated K channel of human erythrocytes (86Rb influx, K efflux); format: cell-based
T1 construct: Preparation of Human Red Blood Cells: Blood is collected in heparinized tubes; endogenous in cells; host or cells: washed human erythrocytes (red blood cells) from heparinized blood
Method: Preparation of Human Red Blood Cells: Blood is collected in heparinized tubes and centrifuged in a Sorvall centrifuge (RB 5B, Du Pont Instruments,Newtown, Conn.) at 5° C. for 10 minutes at 3000 g. Plasma and buffy coat are carefully removed and the cells washed four times with a washing solution containing 150 mM choline chloride (Sigma Co), 1 mM MgC12 (Sigma Co), 10 mM Tris-MOPS (Sigma, Ca), pH 7.4 at 4° C.(CWS). An aliquot of cells is then suspended in an approximately equal volume of CWS, and from this original cell suspension hematocrit (Hct) and hemoglobin (optical density at 540 nm) are determined.
Methods to Test Inhibitors of the Ca^++ Activated K: To test inhibitors of the Ca^++ activated K channel, the channel is activated using the calcium ionophore A23187 (Chalbiochem).
By Atomic Absorption Spectrometry: Washed human erythrocyte are suspended at an hematocrit≈1% in CWS containing 0.150 mM CaCl2 (Sigma Co) Aliquots of 1 ml are removed at 0, 3 and 5 minutes, layered on top of 0.3 ml of the oil n-butyl phthalate (Fair Lane, N.J.) placed in an Eppendorf microtube (Fisher) and then centrifuged in a micro centrifuge for 20 seconds. At time 5.30 minutes, ionophore A23187 (1 μM final concentration) is added and samples removed and spin down through phthalate at times 6, 7, 8 and 9 minutes. The supernatant on top of the oil layer is removed and its K+ concentration is measured by atomic absorption spectrometry using a Perking Elmer model 5000 spectrometer (Perkin Elmer Corp., Norwolk, Conn.). The efflux of K+ (mmol/l cells/h) in the absence and presence of the inhibitor is calculated from the slope of the curves relating the K+ concentration in the supernatants (mmol/l cells) vs. time (min.).
By radioisotopic measurement of ^86 Rb influx. The incubation medium is the same but contains 2 mM KCl and 1 μCi/ml of the radioactive tracer ^86 Rb. After spinning the samples through the phthalate layer, the tubes are rapidly frozen (-80° C.) by immersion in methanol-dry ice, the tips of the tubes containing the packed red cells cut, and counted in a Packard Gamma Counter.
The inhibitory effect of (CLT) on the Ca^++ activated K channel of human erythrocytes was assessed in the presence of 60 μmol A23187/L cell and 100 μMCaCl2.
Other antimycotics were tested for their inhibition of the Ca++ activated 86Rb influx human erythrocytes.

adenocarcinomas in rats = assay: Inhibition of tumor growth in vivo (adenocarcinomas in rats); design: species or system rat
Method: The efficacy of CLT was studied in inhibiting the growth of adenocarcinomas in rats. […] Tumors were measured by size and weight on a daily basis, and growth rates were calculated. Nonparametric statistical comparisons were made among the median growth rates of all of the treatment groups.

[7] = test system: rat vascular smooth muscle cells
Method: (§4) DNA synthesis assessed by the uptake of [3H]thymidine: Cells are grown in either 48 or 96 wells plates (Costar, Cambridge, Mass.) at 10^4 and 0.8 10^3 cells per well, respectively, and grown in Dubelcco's modified Eagle's medium (DME, Gibco, Grand Island, N.Y.) supplemented with 10% heat-inactivated calf serum; they are kept at 37° C. in 5% CO2. When they reach confluence, usually between 3 and 4 days, the medium is replaced with DME 0.5% serum to make them quiescent, and mitogenesis assays are performed 24 hours later.
(§5) Quiescent cells are exposed to a mitogenic stimulus, such as 10% serum, PDGF (Sigma Co. St. Louis, Mo.), bFGF (Upstate Biotechnologies, Lake Placid, N.Y.), or other appropriate mitogen according to the cell line, and 3 hours later 1 μCi/ml of [3H]thymidine (Dupont, Billerica, Mass.) is added to the wells, and the cells maintained at 37° C./5% CO2 for additional 21 hours. Then the cells are washed 3 times with DME medium and the acid-precipitable radioactivity is extracted with cold 10% TCA (Sigma, Co). After neutralization with 0.3N NaOH (Sigma Co.), aliquots are counted in a Packard Tri-Carb Scintillation counter (Packard Instrument, Downer's Grove, Ill.).
Cells were stimulated using 5 μM bFGF.

[8] = test system: rat vascular smooth muscle cells; assay: cells; conditions: read-out: inhibition of DNA synthesis
Method: as §4, §5
Cells were stimulated using 5 μM bFGF.

17-20 desmolase = conditions: background; cited from earlier work
17-hydroxylase = conditions: background; cited from earlier work
[9] = test system: 21- and/or 11-hydroxylase; conditions: background; cited from earlier work
[10] = test system: testicular and adrenal synthesis of steroid hormones, including testosterone; conditions: cited from earlier work
[11] = 10 μM CLT, 5% fetal calf serum stimulation, 24 hours
[12] = re-stimulated with 5% fetal calf serum
[13] = 60 μmol A23187/L cell and 100 μM CaCl2
[14] = other antimycotics, human erythrocytes, FIG. 4

Q: With `N=C(N)NC(=O)c1nc(Cl)c(N)nc1N` [amiloride] as the molecule, how does the “inhibition of (nonprostate cancer) cell proliferation” value (nonprostate cancer cells) read?
A: do not inhibit cell proliferation

Q: Which results are given for `Clc1ccccc1C(c1ccccc1)(c1ccccc1)n1ccnc1` [clotrimazole]?
A: inhibition of DNA synthesis [1, 11]: completely inhibited; reversibility of effect on removing CLT and re-stimulating (not due to a toxic, non-specific effect) [1, 12]: reversed; inhibition of DNA synthesis [2, 11]: completely inhibited; reversibility of effect on removing CLT and re-stimulating (not due to a toxic, non-specific effect) [2, 12]: reversed; growth of sarcoma cells [3]: completely arrested; inhibition of growth [3]: More than 95%; growth of sarcoma cells [4]: completely arrested; inhibition of growth [4]: More than 95%; order of inhibitory potency (DNA synthesis) [5]: CLT more potent than ECZ; inhibition of bFGF-stimulated DNA synthesis ([5]; 10 µM): inhibited DNA synthesis; inhibition of Ca++ activated 86Rb influx [6, 13]: markedly inhibited; inhibition of K efflux [6, 13]: markedly inhibited; order of inhibitory potency (Ca++ activated 86Rb influx) ([6]; human erythrocytes, FIG. 4): clotrimazole more than miconazole; median tumor growth rate (adenocarcinomas in rats; 100 mg/kg by mouth in peanut oil): significant reduction; median tumor growth rate (adenocarcinomas in rats; 200 mg/kg by mouth in peanut oil): significant reduction; dose dependence of inhibition of DNA synthesis ([7]; 0.001 μM, 0.1 μM, 1 μM and 10 μM): dose dependent; inhibition of DNA synthesis ([7]; 10 μM, bFGF stimulation): complete inhibition; inhibition at 1 µM [8]: 45%

Q: Which “inhibition of bFGF-stimulated DNA synthesis” value ([5]; 10 μM, FIG. 3) does the source give for `Clc1ccc(COC(Cn2ccnc2)c2ccc(Cl)cc2Cl)cc1` (stereo not shown) [econazole] here?
A: inhibited DNA synthesis

Q: What about the “order of inhibitory potency (DNA synthesis)” value ([5]; 10 μM, FIG. 3) of the same molecule?
A: ECZ more potent than MCZ

Q: What about the “order of inhibitory potency (Ca++ activated 86Rb influx)” value ([6]; human erythrocytes, FIG. 4) of the same molecule?
A: both of these were more than econazole

Q: Which “inhibition of Ca++ activated 86Rb influx” value [6, 14] does the source give for `OC(Cn1cncn1)(Cn1cncn1)c1ccc(F)cc1F` [fluconazole] here?
A: no inhibition

Q: Which results are given for `CC(=O)N1CCN(c2ccc(OCC3COC(Cn4ccnc4)(c4ccc(Cl)cc4Cl)O3)cc2)CC1` (stereo not shown) [ketoconazole]?
A: inhibition of growth/proliferation of nonprostate cancer cells (nonprostate cancer cells; nonprostate cancer cells tested by the applicants): ineffective; also recorded: not useful for inhibiting proliferation; inhibition of 17-20 desmolase (17-20 desmolase): inhibition; blockade of 17-hydroxylase (17-hydroxylase): partial blockade; inhibition of 21- and/or 11-hydroxylase [9]: marked inhibition; inhibition of testicular and adrenal synthesis of steroid hormones, including testosterone ([10]; in high doses): inhibits testicular and adrenal synthesis of steroid hormones, including testosterone; plasma testosterone ([10]; prostate cancer treatment): reduces plasma testosterone to castration levels

Q: Which “inhibition of Ca++ activated 86Rb influx” value [6, 14] does the source give for `Cc1ncc([N+](=O)[O-])n1CCO` [metronidazole] here?
A: only marginal

Q: For `Clc1ccc(COC(Cn2ccnc2)c2ccc(Cl)cc2Cl)c(Cl)c1` (stereo not shown) [miconazole], which “inhibition of bFGF-stimulated DNA synthesis” value ([5]; 10 μM, FIG. 3) is on record?
A: inhibited DNA synthesis

Q: And the “order of inhibitory potency (DNA synthesis)” value ([5]; 10 μM, FIG. 3)?
A: ECZ more potent than MCZ

Q: What about the “order of inhibitory potency (Ca++ activated 86Rb influx)” value ([6]; human erythrocytes, FIG. 4) of the same molecule?
A: clotrimazole more than miconazole; and both of these were more than econazole

Q: Which “inhibition of Ca++ activated 86Rb influx” value [6, 14] does the source give for `Cc1ncc([N+](=O)[O-])n1CC(O)CCl` (stereo not shown) [ornidazole] here?
A: no inhibition

Q: Which “inhibition of (nonprostate cancer) cell proliferation” value (nonprostate cancer cells) does the source give for `C[C@@H]1O[C@@H](O[C@H]2C[C@@H](O)[C@]3(CO)[C@H]4[C@H](O)C[C@]5(C)[C@@H](C6=CC(=O)OC6)CC[C@]5(O)[C@@H]4CC[C@]3(O)C2)[C@H](O)[C@H](O)[C@H]1O` [ouabain] here?
A: do not inhibit cell proliferation

Q: Which “inhibition of Ca++ activated 86Rb influx” value [6, 14] does the source give for `CCS(=O)(=O)CCn1c([N+](=O)[O-])cnc1C` [tinidazole] here?
A: no inhibition

Q: With charybdotoxin as the molecule, how does the “inhibition of DNA synthesis by other inhibitors of the Ca++ activated K channel” value [5] read?
A: failed to inhibit DNA synthesis

Q: What about the “inhibition of (nonprostate cancer) cell proliferation” value (nonprostate cancer cells) of the same molecule?
A: do not inhibit proliferation

Q: For “kaliotoxin: specific inhibitor of the Ca++ activated potassium channel”, which “inhibition of DNA synthesis by other inhibitors of the Ca++ activated K channel” value [5] is on record?
A: failed to inhibit DNA synthesis

Q: And the “inhibition of (nonprostate cancer) cell proliferation” value (nonprostate cancer cells)?
A: do not inhibit proliferation
